Entries after “also recorded” stand apart in the source; their conditions may differ.
Assays:
Nphs2^R140Q/− mice [1] = assay: mean arterial blood pressure in inducible mouse model of podocin-related nephrotic syndrome; format: in vivo
Protocol: (§1) We have analyzed results from studies in a transgenic mouse model where the mice were treated with atrasentan. Using the Cre recombinase technology, we generated a novel inducible mouse model of podocin-related nephrotic syndrome. Cross-breeding of animals carrying one foxed podocin construct, one podocin allele with the R140Q mutation, and tamoxifen-sensitive inducible Cre enabled us to induce hemizygosity for the R140Q mutant. In this work, we were able to examine the human missense mutation […] of NPHS2 gene identified in pediatric patients with nephrotic syndrome in vivo in an inducible mouse model of R140Q mutation (murine analogue to the human mutation). […] Furthermore, from the end of the week four of observation the values of plasma urea and creatinine started to increase slightly and the creatinine clearance appeared to reduce, pointing to the beginning of renal failure. Seven animals were treated with 5 mg/kg/d atrasentan and another three animals were treated with the lower dose of 2.5 mg/kg/d atrasentan via food intake for four weeks. Furthermore, we started a new group of 8 animals with a higher dose treatment of 15 mg/kg/d atrasentan. […] Proteinuria (FIG. 1A, FIG. 1B, and FIG. 1D), weight gain and blood pressure (FIG. 1C) were monitored once weekly. All animals were sacrificed at the end of the observation period at week 5 (or week 9 with delayed treatment) and the biochemical parameters (FIG. 3A-E) were determined. All results were compared to two control groups of healthy and sick untreated animals. […] Therefore, we started the treatment after 4 weeks of disease state (5 mg/kg/d) when animals are showing high proteinuria, performing 4-weeks treatment duration (n=14) and 8 weeks treatment duration (n=4), respectively. Proteinuria (FIG. 6), weight gain and blood pressure (FIG. 7) were monitored at least every 2 weeks. All animals were sacrificed at the end of the observation period and biochemical parameters (FIG. 8) as well as histological changes (FIG. 9) were determined consequently. All results were compared to control groups of healthy and sick untreated animals.

Nphs2^R140Q/− mice [2] = assay: proteinuria in inducible mouse model of podocin-related nephrotic syndrome; format: in vivo
Protocol: as §1, with “All results were compared to control groups of healthy and sick untreated animals.” left out

Nphs2^R140Q/− mice [3] = assay: kidney histopathology (tubulointerstitial fibrosis, glomerular sclerosis index, podocytes per glomerulus) in the mouse model; format: in vivo
Protocol: We have analyzed results from studies in a transgenic mouse model where the mice were treated with atrasentan. Using the Cre recombinase technology, we generated a novel inducible mouse model of podocin-related nephrotic syndrome. Cross-breeding of animals carrying one foxed podocin construct, one podocin allele with the R140Q mutation, and tamoxifen-sensitive inducible Cre enabled us to induce hemizygosity for the R140Q mutant. In this work, we were able to examine the human missense mutation […] of NPHS2 gene identified in pediatric patients with nephrotic syndrome in vivo in an inducible mouse model of R140Q mutation (murine analogue to the human mutation). […] Furthermore, from the end of the week four of observation the values of plasma urea and creatinine started to increase slightly and the creatinine clearance appeared to reduce, pointing to the beginning of renal failure. Proteinuria (FIG. 1A, FIG. 1B, and FIG. 1D), weight gain and blood pressure (FIG. 1C) were monitored once weekly. All animals were sacrificed at the end of the observation period at week 5 (or week 9 with delayed treatment) and the biochemical parameters (FIG. 3A-E) were determined. All results were compared to two control groups of healthy and sick untreated animals. […] Quantification was done with Image ProPremier (glomerular sclerosis index-GSI, 50 glomeruli/animal). […] FIG. 5C tabulates podocyte numbers per glomerulusWT1-via immunostaining of glomerular cross-sections (4 μm and 10 μm). Quantification was done with ImageJ according to Animal Models of Diabetic Complications Consortium protocol. 50 glomeruli/animal. We found no effect on the number of podocytes per glomerulus in treated animals. Proteinuria (FIG. 6), weight gain and blood pressure (FIG. 7) were monitored at least every 2 weeks. All animals were sacrificed at the end of the observation period and biochemical parameters (FIG. 8) as well as histological changes (FIG. 9) were determined consequently. All results were compared to control groups of healthy and sick untreated animals. […] FIG. 9A are exemplary images of healthy, untreated and Atrasentan treated kidney samples.

ETA receptor = biological target: T1, ETA receptor (Homo sapiens, UniProt P25101); conditions: cited from earlier work
T1 sequence (P25101 21-427): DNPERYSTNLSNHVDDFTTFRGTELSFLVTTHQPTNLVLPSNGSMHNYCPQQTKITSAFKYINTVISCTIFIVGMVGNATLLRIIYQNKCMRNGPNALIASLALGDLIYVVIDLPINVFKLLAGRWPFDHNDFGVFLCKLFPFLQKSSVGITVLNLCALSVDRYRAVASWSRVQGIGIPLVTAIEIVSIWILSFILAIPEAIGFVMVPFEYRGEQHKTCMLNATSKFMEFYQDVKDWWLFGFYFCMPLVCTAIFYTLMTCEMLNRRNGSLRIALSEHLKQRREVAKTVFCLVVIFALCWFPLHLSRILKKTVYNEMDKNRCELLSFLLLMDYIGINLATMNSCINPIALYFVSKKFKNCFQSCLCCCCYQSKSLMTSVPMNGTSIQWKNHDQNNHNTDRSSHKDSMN

podocin = podocin expression analysis (Western blot, qRT-PCR, immunofluorescence) in the mouse model; format: in vivo; conditions: treated animals, Example 2
Protocol: Further podocin expression analysis was carried out.

[4] = tested on: Endothelin-1, ETAR and ETBR; assay: expression of Endothelin-1, ETAR and ETBR (real-time PCR, Western blot) in kidney of the mouse model; format: in vivo; conditions: Atrasentan treated animals, Example 2
Protocol: Western blot analysis was performed to confirm the observation of increased mRNA level in the late course of disease (FIG. 11).

[5] = delayed treatment, 4 weeks of treatment, compared to sick untreated animals of the same age, Example 2

Structure (SMILES): CCCCN(CCCC)C(=O)CN1C[C@H](c2ccc3c(c2)OCO3)[C@@H](C(=O)O)[C@@H]1c1ccc(OC)cc1 [atrasentan, (2R,3R,4S)-4-(1,3-Benzodioxol-5-yl)-1-[2-(dibutylamino)-2-oxoethyl]-2-(4-methoxyphenyl)pyrrolidine-3-carboxylic acid]
- blood pressure (Nphs2^R140Q/− mice [1]; delayed treatment 5 mg/kg/d, compared to untreated animals, Example 1): lowered blood pressure
- MAP (Nphs2^R140Q/− mice [1]; delayed treatment (D), wk7, p=0.001 v untreated 99.5): 80.4 mmHg
- blood pressure (Nphs2^R140Q/− mice [1]; four-week delay, 5 mg/kg/d, compared to untreated animals at week 5 and 7 (p=0.001, p=0.047), Example 2): significant decrease of blood pressure
- blood pressure (Nphs2^R140Q/− mice [1]; prophylactic 2.5 mg/kg/d, compared to untreated and healthy animals, Example 1): higher blood pressure
- blood pressure (Nphs2^R140Q/− mice [1]; prophylactic 5 mg/kg/d, compared to untreated and healthy animals, Example 1): higher blood pressure
- blood pressure (Nphs2^R140Q/− mice [1]; prophylactic 15 mg/kg/d, compared to untreated animals, Example 1): lower blood pressure
- proteinuria (Nphs2^R140Q/− mice [2]; delayed treatment 5 mg/kg/d after 4 weeks of disease state, Example 2): reaches a peak and declines afterwards progressively; also recorded: decreased progressively
- proteinuria (Nphs2^R140Q/− mice [2]; delayed treatment 5 mg/kg/d started four weeks after induction, n=9, Example 1): effective attenuation of proteinuria; also recorded: antiproteinuric effect
- proteinuria (Nphs2^R140Q/− mice [2]; immediate or prophylactic treatment, 2.5, 5 or 15 mg/kg/d via food, first 4 weeks after induction, Example 1): no beneficial effect in attenuating proteinuria; also recorded: no antiproteinuric effect
- tubulointerstitial fibrosis (Nphs2^R140Q/− mice [3]; 2.5 mg/kg/d, p<0.05 compared to untreated group, Example 1): reduced area affected by fibrosis
- tubulointerstitial fibrosis (Nphs2^R140Q/− mice [3]; 5 mg/kg/d, p<0.05 compared to untreated group, Example 1): reduced area affected by fibrosis
- tubulointerstitial fibrosis (Nphs2^R140Q/− mice [3]; 15 mg/kg/d, Example 1): increase of tubulointerstial fibrosis
- glomerular sclerosis index (GSI) (Nphs2^R140Q/− mice [3]; all treatment groups, PAS staining, 50 glomeruli/animal, Example 1): No improvement
- podocytes per glom (Nphs2^R140Q/− mice [3]; delayed treatment (D), n.s. vs. untreated wk 8 32%): 54 % of healthy controls
- GSI (Nphs2^R140Q/− mice [3]; delayed treatment (D), n=9, p=0.0008 v untreated wk 8 2.27): 1.69
- glomerulosclerosis (Nphs2^R140Q/− mice [3]; [5]): mitigated
- tubulointerstitial fibrosis (Nphs2^R140Q/− mice [3]; [5]): mitigated
- podocyte population (Nphs2^R140Q/− mice [3]; delayed treatment, 4 weeks of treatment, Example 2): No notable effects
- number of podocytes per glomerulus (Nphs2^R140Q/− mice [3]; treated animals, WT1 immunostaining, Example 1): no effect
- relative selectivity for ETA receptor over ETB receptor (ETA receptor): greater than 1,800 fold
- Podocin protein abundance (podocin; Western blot): partly preserved
- Podocin mRNA expression (podocin; qRT-PCR): partly preserved
- ETAR mRNA expression [4]: lower expression
- ETBR mRNA expression [4]: lower expression
- endothelin-1 mRNA expression [4]: lower expression
- protein expression of endothelin-1 ([4]; Western blot): decreased protein expression

— US20170014386A1, “Treatment of Multidrug-Resistant Nephrotic Syndrome (MDR-NS) in Children” (AbbVie, Inc., priority 2015, published 2017)
